Experimental data as given in US9399646B2 (Genentech, Inc., priority 2010, dated 2016).

How the values were obtained:
MCF-7 cells = test: Breast cancer cell viability assay (CellTiter-Glo, 5 days); assay type: cell-based; settings: 5 days' compound exposure; for IC50: Homo sapiens, MCF7, 120 h
Procedure, shortened: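 MCF-7 cells, 320 per well in RPMI with 10% FBS and 20 mM HEPES, adhered overnight, then exposed 5 days to an eleven-point semilog dilution (final 0.3-0.000003 μM). CellTiter-Glo luminescence read; % viability = (sample − cell-free background)/(untreated − background) × 100.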

ER-α in MCF-7 cells = target: T1, ER-α in MCF-7 cells (Homo sapiens, UniProt P03372); test: Breast cancer cell ER-α in cell western assay (SP1); assay type: cell-based; parameters: endogenous in cells; host or cells: MCF-7; settings: 4 or 24 hr post compound addition; for Emax: MCF7, SP1 antibody, read-out: ER-α In Cell Western Assay (SP1) Max Response; for DC50: SP1 antibody, read-out: ER-α In Cell Western Assay (SP1) IC50
T1 sequence (P03372 1-595): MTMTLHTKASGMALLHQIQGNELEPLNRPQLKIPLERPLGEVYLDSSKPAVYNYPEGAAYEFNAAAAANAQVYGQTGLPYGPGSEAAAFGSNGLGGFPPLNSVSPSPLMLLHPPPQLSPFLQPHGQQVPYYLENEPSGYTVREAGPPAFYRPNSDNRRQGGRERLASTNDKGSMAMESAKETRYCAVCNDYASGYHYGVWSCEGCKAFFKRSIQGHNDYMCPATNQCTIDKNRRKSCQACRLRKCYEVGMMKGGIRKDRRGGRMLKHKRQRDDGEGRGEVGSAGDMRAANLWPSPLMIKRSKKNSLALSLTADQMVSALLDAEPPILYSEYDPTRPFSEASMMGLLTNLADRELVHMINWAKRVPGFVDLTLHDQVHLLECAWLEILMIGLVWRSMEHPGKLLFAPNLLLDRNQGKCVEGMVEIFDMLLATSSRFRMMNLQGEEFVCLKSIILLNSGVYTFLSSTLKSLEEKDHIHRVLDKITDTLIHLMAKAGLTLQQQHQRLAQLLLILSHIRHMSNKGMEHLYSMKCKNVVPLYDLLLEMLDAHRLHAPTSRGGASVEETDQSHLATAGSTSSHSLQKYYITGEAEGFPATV
Procedure, shortened: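 MCF-7, charcoal-stripped FBS/RPMI, 3200 cells/well, adhered overnight. Formalin fix, SP1 Ab o/n 4 °C, IRDye 800CW + DRAQ5; % ER = 800/700 ratio vs untreated.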

| Structure (SMILES) | IC50 (MCF-7 cells) | Emax (ER-α in MCF-7 cells) | DC50 (ER-α in MCF-7 cells) | MCF7 Viability Assay Max Response (MCF-7 cells) |
| --- | --- | --- | --- | --- |
| CC/C(=C(/c1ccc(/C=C/C(=O)O)cc1)c1ccc2nncn2c1)c1ccccc1 [Compound 127, (E)-3-(4-((E)-1-([1,2,4]Triazolo[4,3-a]pyridin-6-yl)-2-phenylbut-1-en-1-yl)phenyl)acrylic acid] | > 100 nM | < 40% | > 100 nM | + (+ = a single % value < 40%) |
| CC/C(=C(/c1ccc(/C=C/C(=O)O)cc1)c1ccc2c(c1)OCO2)c1ccccc1 [Compound 128, (E)-3-(4-((E)-1-(Benzo[d][1,3]dioxol-5-yl)-2-phenylbut-1-en-1-yl)phenyl)acrylic acid] | > 100 nM | ≥ 40% | > 100 nM | ++ (++ = a single % value ≧ 40%) |
| CC/C(=C(/c1ccc(/C=C/C(=O)O)cc1)c1ccn2cnnc2c1)c1ccccc1 [Compound 134, (E)-3-(4-((E)-1-([1,2,4]Triazolo[4,3-a]pyridin-7-yl)-2-phenylbut-1-en-1-yl)phenyl)acrylic acid] | > 100 nM | < 40% | > 100 nM | + (+ = a single % value < 40%) |
| CC/C(=C(/c1ccc(/C=C/C(=O)O)cc1)c1ccn2cncc2c1)c1ccccc1 [Compound 135, (E)-3-(4-((E)-1-(Imidazo[1,5-a]pyridin-7-yl)-2-phenylbut-1-en-1-yl)phenyl)acrylic acid] | ≤ 100 nM | ≥ 40% | > 100 nM | + (+ = a single % value < 40%) |
| CC/C(=C(/c1ccc(/C=C/C(=O)O)cc1)c1ccn2ncnc2c1)c1ccccc1 [Compound 136, (E)-3-(4-((E)-1-([1,2,4]Triazolo[1,5-a]pyridin-7-yl)-2-phenylbut-1-en-1-yl)phenyl)acrylic acid] | > 100 nM | ≥ 40% | > 100 nM | + (+ = a single % value < 40%) |
| CC/C(=C(/c1ccc(/C=C/C(=O)O)cc1)c1ccc2nsnc2c1)c1ccccc1 [Compound 144, (E)-3-(4-((E)-1-(Benzo[c][1,2,5]thiadiazol-5-yl)-2-phenylbut-1-en-1-yl)phenyl)acrylic acid] | > 100 nM | ≥ 40% | > 100 nM | ++ (++ = a single % value ≧ 40%) |
| CC/C(=C(/c1ccc(/C=C/C(=O)O)cc1)c1ccc2c(cnn2-c2cccnc2)c1)c1ccccc1 [Compound 145, (E)-3-(4-((E)-2-Phenyl-1-(1-(pyridin-3-yl)-1H-indazol-5-yl)but-1-en-1-yl)phenyl)acrylic acid] | > 100 nM | ≥ 40% | > 100 nM | ++ (++ = a single % value ≧ 40%) |
| CC/C(=C(/c1ccc(/C=C/C(=O)O)cc1)c1ccc2ocnc2c1)c1ccccc1 [Compound 146] | > 100 nM | ≥ 40% | > 100 nM | ++ (++ = a single % value ≧ 40%) |
| CC/C(=C(/c1ccc(/C=C/C(=O)O)cc1)c1cnn2ccccc12)c1ccccc1 [Compound 148, (E)-3-(4-((E)-2-Phenyl-1-(pyrazolo[1,5-a]pyridin-3-yl)but-1-en-1-yl)phenyl)acrylic acid] | > 100 nM | ≥ 40% | > 100 nM | ++ (++ = a single % value ≧ 40%) |
| CC/C(=C(/c1ccc(/C=C/C(=O)O)cc1)c1ccc(O)nc1)c1ccccc1 [Compound 152, (E)-3-(4-((E)-1-(6-Hydroxypyridin-3-yl)-2-phenylbut-1-en-1-yl)phenyl)acrylic acid] | > 100 nM | ≥ 40% | – | + (+ = a single % value < 40%) |

More lines, main results first:

| IC50 (MCF-7 cells) | Emax (ER-α in MCF-7 cells) | DC50 (ER-α in MCF-7 cells) | Structure (SMILES) | MCF7 Viability Assay Max Response (MCF-7 cells) |
| --- | --- | --- | --- | --- |
| > 100 nM | ≥ 40% | ≤ 100 nM | CC/C(=C(/c1ccc(/C=C/C(=O)O)cc1)c1ccc2nccn2c1)c1ccccc1C [Compound 129, (E)-3-(4-((E)-1-(Imidazo[1,2-a]pyridin-6-yl)-2-(o-tolyl)but-1-en-1-yl)phenyl)acrylic acid] | ++ (++ = a single % value ≧ 40%) |
| > 100 nM | ≥ 40% | > 100 nM | CC/C(=C(/c1ccc(/C=C/C(=O)O)cc1)c1ccc2ncsc2c1)c1ccccc1 [Compound 130, (E)-3-(4-((E)-1-(Benzo[d]thiazol-6-yl)-2-phenylbut-1-en-1-yl)phenyl)acrylic acid] | ++ (++ = a single % value ≧ 40%) |
| > 100 nM | ≥ 40% | > 100 nM | CC/C(=C(/c1ccc(/C=C/C(=O)O)cc1)c1ccc2cncn2c1)c1ccccc1 [Compound 133, (E)-3-(4-((E)-1-(Imidazo[1,5-a]pyridin-6-yl)-2-phenylbut-1-en-1-yl)phenyl)acrylic acid] | ++ (++ = a single % value ≧ 40%) |
| > 100 nM | ≥ 40% | > 100 nM | CC/C(=C(/c1ccc(/C=C/C(=O)O)cc1)c1ccc2nonc2c1)c1ccccc1 [Compound 137, (E)-3-(4-((E)-1-(Benzo[c][1,2,5]oxadiazol-5-yl)-2-phenylbut-1-en-1-yl)phenyl)acrylic acid] | + (+ = a single % value < 40%) |
| > 100 nM | ≥ 40% | > 100 nM | CC/C(=C(/c1ccc(/C=C/C(=O)O)cc1)c1ccn2nncc2c1)c1ccccc1 [Compound 138, (E)-3-(4-((E)-1-([1,2,3]Triazolo[1,5-a]pyridin-5-yl)-2-phenylbut-1-en-1-yl)phenyl)acrylic acid] | + (+ = a single % value < 40%) |
| ≤ 100 nM | ≥ 40% | ≤ 100 nM | CC/C(=C(/c1ccc(/C=C/C(=O)O)cc1)c1ccc2scnc2c1)c1ccccc1 [Compound 141, (E)-3-(4-((E)-1-(Benzo[d]thiazol-5-yl)-2-phenylbut-1-en-1-yl)phenyl)acrylic acid] | ++ (++ = a single % value ≧ 40%) |
| ≤ 100 nM | ≥ 40% | ≤ 100 nM | CC/C(=C(/c1ccc(/C=C/C(=O)O)cc1)c1cc2ccccc2s1)c1ccccc1 [Compound 142, (E)-3-(4-((E)-1-(Benzo[b]thiophen-2-yl)-2-phenylbut-1-en-1-yl)phenyl)acrylic acid] | ++ (++ = a single % value ≧ 40%) |
| > 100 nM | ≥ 40% | > 100 nM | CC/C(=C(/c1ccc(/C=C/C(=O)O)cc1)c1ccc2c(cnn2-c2ccccc2)c1)c1ccccc1 [Compound 143, (E)-3-(4-((E)-2-Phenyl-1-(1-phenyl-1H-indazol-5-yl)but-1-en-1-yl)phenyl)acrylic acid] | ++ (++ = a single % value ≧ 40%) |
| ≤ 100 nM | ≥ 40% | ≤ 100 nM | CC/C(=C(/c1ccc(/C=C/C(=O)O)cc1)c1ccc2[nH]ncc2c1)c1ccccc1Oc1ccccc1 [Compound 147, (E)-3-(4-((E)-1-(1H-Indazol-5-yl)-2-(2-phenoxyphenyl)but-1-en-1-yl)phenyl)acrylic acid] | ++ (++ = a single % value ≧ 40%) |
| > 100 nM | ≥ 40% | > 100 nM | CC/C(=C(/c1ccc(/C=C/C(=O)O)cc1)c1ncc2[nH]ncc2n1)c1ccccc1 [Compound 149, (E)-3-(4-((E)-2-Phenyl-1-(1H-pyrazolo[4,3-d]pyrimidin-5-yl)but-1-en-1-yl)phenyl)acrylic acid] | + (+ = a single % value < 40%) |
| ≤ 100 nM | ≥ 40% | ≤ 100 nM | Cc1cscc1/C(=C(\c1ccc(/C=C/C(=O)O)cc1)c1ccc2[nH]ncc2c1)C(C)C [Compound 154, (E)-3-(4-((E)-1-(1H-Indazol-5-yl)-3-methyl-2-(4-methylthiophen-3-yl)but-1-en-1-yl)phenyl)acrylic acid] | ++ (++ = a single % value ≧ 40%) |
| > 100 nM | ≥ 40% | > 100 nM | CC/C(=C(/c1ccc(/C=C/C(=O)O)cc1)c1ccc2sncc2c1)c1ccccc1 [Compound 156, (E)-3-(4-((E)-1-(Benzo[d]isothiazol-5-yl)-2-phenylbut-1-en-1-yl)phenyl)acrylic acid] | ++ (++ = a single % value ≧ 40%) |
| > 100 nM | ≥ 40% | > 100 nM | CC/C(=C(/c1ccc(/C=C/C(=O)O)cc1)c1ccc2sc(C)nc2c1)c1ccccc1 [Compound 159, (E)-3-(4-((E)-1-(2-Methylbenzo[d]thiazol-5-yl)-2-phenylbut-1-en-1-yl)phenyl)acrylic acid] | ++ (++ = a single % value ≧ 40%) |
